# Target: T1, Human orexin receptor type 2 (Homo sapiens, UniProt O43614)
# T1 construct: expressed in transfected cells; host or cells: CHO cells (transient expression)
# T1 sequence (O43614 1-444): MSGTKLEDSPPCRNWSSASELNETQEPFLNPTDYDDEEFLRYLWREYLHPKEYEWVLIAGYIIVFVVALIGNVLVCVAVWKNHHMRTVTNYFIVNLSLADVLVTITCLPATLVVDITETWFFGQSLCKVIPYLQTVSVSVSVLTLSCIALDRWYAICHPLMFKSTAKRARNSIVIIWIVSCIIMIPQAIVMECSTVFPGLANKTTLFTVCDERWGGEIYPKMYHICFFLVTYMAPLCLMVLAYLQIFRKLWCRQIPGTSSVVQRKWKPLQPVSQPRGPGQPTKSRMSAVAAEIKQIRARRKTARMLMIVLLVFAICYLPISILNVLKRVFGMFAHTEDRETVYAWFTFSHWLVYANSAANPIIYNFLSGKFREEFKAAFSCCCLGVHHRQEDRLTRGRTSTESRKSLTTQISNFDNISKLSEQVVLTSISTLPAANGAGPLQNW
# Assay: Test 1: Evaluation of agonist activity for orexin receptor type 2 (aequorin luminescence, intracellular calcium mobilization in CHO cells)
# Format: cell-based
# Conditions: relative percentage of luminescence for the luminescence (100%) of Orexin A (100 pM); CHO cells transiently expressing human orexin receptor type 2 and apoaequorin; Orexin A Lot. 641114
# Procedure: Test 1: Evaluation of Agonist Activity for Orexin Receptor Type 2
# Human orexin receptor type 2 and apoaequorin were transiently expressed in CHO cells, and the agonist activity was evaluated based on intracellular calcium mobilization with ligand stimulation. The CHO cells transiently-expressed human orexin receptor type 2 and apoaequorin were seeded on a 384-well plate by 2,000 cells/well, and then incubated for 16-22 hours. After the plate was returned to room temperature, Coelenterazine hcp (final concentration: 1 μM) was added to the plate, and the plate was allowed to stand at room temperature for 2 hours. And then, Orexin A (PEPTIDE INSTITUTE, INC., Lot. 641114) or each test compound was added to the plate, and the luminescence of the cells was measured with FDSS7000 (Hamamatsu Photonics K.K.), wherein Orexin A and each test compound were dissolved in DMSO (final concentration: 0.1%), and diluted with a buffer (Hanks, 20 mM HEPES, 0.1% BSA). The agonist activity of each test compound for orexin receptor type 2 was calculated as relative percentage of luminescence for the luminescence (100%) of Orexin A (100 pM).
row,SMILES,agonist activity (%)
1,"Cc1ccc(C2CC=C(C(=O)N[C@@H]3[C@@H](N4CCN(C(C)C)CC4)CCCC3(F)F)CC2)cc1 (mixture of isomers) [Example 77, rac-N-{(1R,6S)-2,2-Difluoro-6-[4-(propan-2-yl)piperazin-1-yl]cyclohexyl}-4′-methyl-1,2,3,6-tetrahydro[1,1′-biphenyl]-4-carboxamide]",158%
2,"CC(C)N1CCN([C@H]2CCCC(F)(F)[C@@H]2NC(=O)N2CCC(C)(c3noc([C@@H]4C[C@@H]4F)n3)CC2)CC1 [Example 66, N-{(1R,6S)-2,2-difluoro-6-[4-(propan-2-yl)piperazin-1-yl]cyclohexyl}-4-{5-[(1S,2S)-2-fluorocyclopropyl]-1,2,4-oxadiazol-3-yl}-4-methylpiperidine-1-carboxamide]",144%
3,"CC(C)N1CCN([C@H]2CCCC(F)(F)[C@@H]2NC(=O)N2CCC(C)(Oc3ccccn3)CC2)CC1 (racemic) [Example 42, rac-N-{(1R,6S)-2,2-difluoro-6-[4-(propan-2-yl)piperazin-1-yl]cyclohexyl}-4-methyl-4-[(pyridin-2-yl)oxy]piperidine-1-carboxamide]",141%
4,"CC(C)N1CCN([C@H]2CCCC(F)(F)[C@@H]2NC(=O)N2CCC(C)(c3nnc(C4CC4)s3)CC2)CC1 (racemic) [Example 34, rac-4-(5-cyclopropyl-1,3,4-thiadiazol-2-yl)-N-{(1R,6S)-2,2-difluoro-6-[4-(propan-2-yl)piperazin-1-yl]cyclohexyl}-4-methylpiperidine-1-carboxamide]",183%
5,"Cc1ccc(C2(C)CCN(C(=O)N[C@@H]3[C@@H](N4CCN(C(C)C)CC4)CCCC3(F)F)CC2)c(C#N)c1 [Example 60, 4-(2-cyano-4-methylphenyl)-N-{(1R,6S)-2,2-difluoro-6-[4-(propan-2-yl)piperazin-1-yl]cyclohexyl}-4-methylpiperidine-1-carboxamide]",151%
6,"Cc1ccc(C2(C)CCN(C(=O)N[C@@H]3[C@@H](N4CCN(C(C)C)CC4)CCCC3(F)F)CC2)c(F)c1 [Example 56, N-{(1R,6S)-2,2-difluoro-6-[4-(propan-2-yl)piperazin-1-yl]cyclohexyl}-4-(2-fluoro-4-methylphenyl)-4-methylpiperidine-1-carboxamide]",140%
7,"CC(C)N1CCN([C@H]2CCCC(F)(F)[C@@H]2NC(=O)N2CCC(F)(c3ccccn3)CC2)CC1 (racemic) [Example 46, rac-N-{(1R,6S)-2,2-difluoro-6-[4-(propan-2-yl)piperazin-1-yl]cyclohexyl}-4-fluoro-4-(pyridin-2-yl)piperidine-1-carboxamide]",136%
8,"CC(C)N1CCN([C@H]2CCCC(F)(F)[C@@H]2NC(=O)N2CCC(C)(c3nc4c(o3)CCCC4)CC2)CC1 (racemic) [Example 27, rac-N-{(1R,6S)-2,2-difluoro-6-[4-(propan-2-yl)piperazin-1-yl]cyclohexyl}-4-methyl-4-(4,5,6,7-tetrahydro-1,3-benzoxazol-2-yl)piperidine-1-carboxamide]",162%
9,"CC(C)c1ccc(C2=CCCCC2NC(=O)N2CCC(C)(c3cc(C4CC4)on3)CC2)cn1 (racemic) [Example 15, rac-4-(5-cyclopropyl-1,2-oxazol-3-yl)-4-methyl-N-{2-[6-(propan-2-yl)pyridin-3-yl]cyclohex-2-en-1-yl}piperidine-1-carboxamide]",62%
10,"CC(C)N1CCN([C@H]2CCCC(F)(F)[C@@H]2NC(=O)N2CCC(c3ccc(F)cn3)CC2)CC1 (racemic) [Example 52, rac-N-{(1R,6S)-2,2-difluoro-6-[4-(propan-2-yl)piperazin-1-yl]cyclohexyl}-4-(5-fluoropyridin-2-yl)piperidine-1-carboxamide]",113%
11,"CC(C)N1CCN([C@H]2CCCC(F)(F)[C@@H]2NC(=O)N2CCC(C)(c3nsc(C4CC4)n3)CC2)CC1 [Example 43, 4-(5-cyclopropyl-1,2,4-thiadiazol-3-yl)-N-{(1R,6S)-2,2-difluoro-6-[4-(propan-2-yl)piperazin-1-yl]cyclohexyl}-4-methylpiperidine-1-carboxamide]",146%
12,"CC(C)N1CCN([C@H]2CCCC(F)(F)[C@@H]2NC(=O)N2CCC(C)(c3cc(C4CC4)on3)CC2)CC1 [Example 25, 4-(5-cyclopropyl-1,2-oxazol-3-yl)-N-{(1R,6S)-2,2-difluoro-6-[4-(propan-2-yl)piperazin-1-yl]cyclohexyl}-4-methylpiperidine-1-carboxamide]",165%
13,"Cc1ccc(C2CCN(C(=O)N[C@@H]3[C@@H](N4CCN(C(C)C)CC4)CCCC3(F)F)CC2)cc1 (racemic) [Example 8, rac-N-{(1R,6S)-2,2-difluoro-6-[4-(propan-2-yl)piperazin-1-yl]cyclohexyl}-4-(4-methylphenyl)piperidine-1-carboxamide]",207%
14,"Cc1ccc(C2CCN(C(=O)NC3C(CN4CCN(C(C)C)CC4)[C@@H]4CC[C@H]3C4)CC2)cc1 (mixture of isomers) [Example 81, rac-4-(4-Methylphenyl)-N-[(1S,4R)-3-{[4-(propan-2-yl)piperazin-1-yl]methyl}bicyclo[2.2.1]heptan-2-yl]piperidine-1-carboxamide]",57%
15,"CC(C)N1CC2CCC(C1)N2[C@H]1CCCC(F)(F)[C@@H]1NC(=O)N1CCC(C)(c2noc(C3CC3)n2)CC1 [Example 62, 4-(5-cyclopropyl-1,2,4-oxadiazol-3-yl)-N-{(1R,6S)-2,2-difluoro-6-[3-(propan-2-yl)-3,8-diazabicyclo[3.2.1]octan-8-yl]cyclohexyl}-4-methylpiperidine-1-carboxamide]",174%
16,"CC(C)N1CCN([C@H]2CCCC(F)(F)[C@@H]2NC(=O)N2CCC(C)(c3nnc(C4CC4)s3)CC2)CC1 [Example 44, 4-(5-cyclopropyl-1,3,4-thiadiazol-2-yl)-N-{(1R,6S)-2,2-difluoro-6-[4-(propan-2-yl)piperazin-1-yl]cyclohexyl}-4-methylpiperidine-1-carboxamide]",148%
17,"Cc1cnc(C2CCN(C(=O)N[C@@H]3[C@@H](N4CCN(C(C)C)CC4)CCCC3(F)F)CC2)nc1 (racemic) [Example 54, rac-N-{(1R,6S)-2,2-difluoro-6-[4-(propan-2-yl)piperazin-1-yl]cyclohexyl}-4-(5-methylpyrimidin-2-yl)piperidine-1-carboxamide]",146%
18,"CC(C)N1CCN([C@H]2CCCC(F)(F)[C@@H]2NC(=O)N2CCC(C)(c3nc4ccccc4o3)CC2)CC1 (racemic) [Example 21, rac-4-(1,3-benzoxazol-2-yl)-N-{(1R,6S)-2,2-difluoro-6-[4-(propan-2-yl)piperazin-1-yl]cyclohexyl}-4-methylpiperidine-1-carboxamide]",153%
19,"CC(C)N1CCN([C@H]2CCCC(F)(F)[C@@H]2NC(=O)N2CCC3(CCCC3)CC2)CC1 (racemic) [Example 33, rac-N-{(1R,6S)-2,2-difluoro-6-[4-(propan-2-yl)piperazin-1-yl]cyclohexyl}-8-azaspiro[4.5]decane-8-carboxamide]",123%
20,"Cc1ccc(C2CCN(C(=O)N[C@@H]3[C@@H](N4CCN(C(C)C)CC4)CCCC3(F)F)CC2)nc1 (racemic) [Example 50, rac-N-{(1R,6S)-2,2-difluoro-6-[4-(propan-2-yl)piperazin-1-yl]cyclohexyl}-4-(5-methylpyridin-2-yl)piperidine-1-carboxamide]",154%
21,"CC(C)N1CCN([C@H]2CCCC(F)(F)[C@@H]2NC(=O)N2CCC(C)(c3nsc(OC4CC4)n3)CC2)CC1 [Example 57, 4-[5-(cyclopropyloxy)-1,2,4-thiadiazol-3-yl]-N-{(1R,6S)-2,2-difluoro-6-[4-(propan-2-yl)piperazin-1-yl]cyclohexyl}-4-methylpiperidine-1-carboxamide]",155%
22,"CC(C)N1CC[C@@H](O[C@H]2CCCC(F)(F)[C@@H]2NC(=O)N2CCC(C)(c3noc(C4CC4)n3)CC2)C1 [Example 64, 4-(5-cyclopropyl-1,2,4-oxadiazol-3-yl)-N-[(1R,6S)-2,2-difluoro-6-{[(3R)-1-(propan-2-yl)pyrrolidin-3-yl]oxy}cyclohexyl]-4-methylpiperidine-1-carboxamide]",204%
23,"CC(C)N1CCN([C@H]2CCCC(F)(F)[C@@H]2NC(=O)N2CCC(O)(c3ccccn3)CC2)CC1 (racemic) [Example 37, rac-N-{(1R,6S)-2,2-difluoro-6-[4-(propan-2-yl)piperazin-1-yl]cyclohexyl}-4-hydroxy-4-(pyridin-2-yl)piperidine-1-carboxamide]",45%
